# Experimental data: PMC10726481, “New Teixobactin Analogues with a Total Lactam Ring” (ACS Medicinal Chemistry Letters, 2023)
# Bridge positions count the residues as written; N and C are the ends. Square brackets hold non-standard residues; d marks the D form. Peptide text beside a SMILES is read from it. d(aIle) = CC[C@H](C)[C@@H](N)C(=O)O; dNMeF = CN[C@H](Cc1ccccc1)C(=O)O; Nle = CCCC[C@H](N)C(=O)O; dDap = NC[C@@H](N)C(=O)O
# Assays:
# S. aureus ATCC 25923 = assay type: cell-based; settings: ATCC 25923, 18 h
# Description: (§1) . The minimum inhibitory concentrations (MICs) of synthesized compounds were assessed according to the broth microdilution method using 96-well plates, in reference to the protocol of the Clinical and Laboratory Standards Institute (CLSI).[32],[33] In assays, reference strains of the bacteria S. aureus ATCC 25923, S. epidermidis ATCC 14990, and E. coli ATCC 25922 and the fungus C. glabrata ATCC 15126 were used, all from The Polish Collection of Microorganism, Polish Academy of Sciences, Wrocław, Poland. Bacteria at initial inoculums of 0.5 × 10^5 CFU/mL in Mueller–Hinton Broth (MHB), and fungus at initial inoculums of 2 × 10^3 CFU/mL in RPMI-1640, were exposed to the serial dilution of compounds. Tested concentrations were in the range 1–512 μg/mL. 96-well plates with microorganisms and tested substances were incubated at 37 °C for 18 h for bacteria and for 24 h for C. glabrata. The MIC values were taken as the lowest concentrations at which visible growth of microorganisms was inhibited. The minimum inhibitory concentrations (MICs) for MRSA ATCC 33591 were tested at the University of Liverpool. Bacterial cultures were grown overnight in Mueller–Hinton Agar (MHA) plates and adjusted to a final concentration of 10^5–10^6 CFU/mL. 100 μL of inoculum in Meuller–Hinton broth (MHB) was mixed with an equal volume of peptides (dissolved in MHB) at 2× their concentration in a 96-well plate. […] Positive and negative controls contained 200 μL of inoculum without any peptide dissolved in broth, respectively. The 96-well plates were then incubated at 37 °C for 24 h. All the experiments were performed in two independent duplicates, and the MIC was determined as the lowest concentration in which no visible growth was observed.
# [1] = test system: S. epidermidis ATCC 14990; assay type: cell-based; settings: ATCC 14990, 18 h
# Description: as §1
# C. glabrata ATCC 15126 = experiment: microbe, parasite or virus in culture; assay type: cell-based; settings: for MIC C. glabrata ATCC 15126: ATCC 15126, 24 h
# Description: (§2) . The minimum inhibitory concentrations (MICs) of synthesized compounds were assessed according to the broth microdilution method using 96-well plates, in reference to the protocol of the Clinical and Laboratory Standards Institute (CLSI).[32],[33] In assays, reference strains of the bacteria S. aureus ATCC 25923, S. epidermidis ATCC 14990, and E. coli ATCC 25922 and the fungus C. glabrata ATCC 15126 were used, all from The Polish Collection of Microorganism, Polish Academy of Sciences, Wrocław, Poland. Bacteria at initial inoculums of 0.5 × 10^5 CFU/mL in Mueller–Hinton Broth (MHB), and fungus at initial inoculums of 2 × 10^3 CFU/mL in RPMI-1640, were exposed to the serial dilution of compounds. Tested concentrations were in the range 1–512 μg/mL. 96-well plates with microorganisms and tested substances were incubated at 37 °C for 18 h for bacteria and for 24 h for C. glabrata. The MIC values were taken as the lowest concentrations at which visible growth of microorganisms was inhibited. The minimum inhibitory concentrations (MICs) for MRSA ATCC 33591 were tested at the University of Liverpool. Bacterial cultures were grown overnight in Mueller–Hinton Agar (MHA) plates and adjusted to a final concentration of 10^5–10^6 CFU/mL. 100 μL of inoculum in Meuller–Hinton broth (MHB) was mixed with an equal volume of peptides (dissolved in MHB) at 2× their concentration in a 96-well plate. […] The final peptide concentrations ranged from 0.0625–32 μg/mL (the lower range 0.031–16 μg/mL was used). Positive and negative controls contained 200 μL of inoculum without any peptide dissolved in broth, respectively. The 96-well plates were then incubated at 37 °C for 24 h. All the experiments were performed in two independent duplicates, and the MIC was determined as the lowest concentration in which no visible growth was observed.
# E. coli ATCC 25922 = experiment: microbe, parasite or virus in culture; assay type: cell-based; settings: for MIC E. coli ATCC 25922: ATCC 25922, 18 h
# Description: as §2
# MRSA ATCC 33591 = assay type: cell-based, methicillin-resistant S. aureus; settings: ATCC 33591, 24 h
# Description: . The minimum inhibitory concentrations (MICs) of synthesized compounds were assessed according to the broth microdilution method using 96-well plates, in reference to the protocol of the Clinical and Laboratory Standards Institute (CLSI).[32],[33] In assays, reference strains of the bacteria S. aureus ATCC 25923, S. epidermidis ATCC 14990, and E. coli ATCC 25922 and the fungus C. glabrata ATCC 15126 were used, all from The Polish Collection of Microorganism, Polish Academy of Sciences, Wrocław, Poland. Bacteria at initial inoculums of 0.5 × 10^5 CFU/mL in Mueller–Hinton Broth (MHB), and fungus at initial inoculums of 2 × 10^3 CFU/mL in RPMI-1640, were exposed to the serial dilution of compounds. Tested concentrations were in the range 1–512 μg/mL. 96-well plates with microorganisms and tested substances were incubated at 37 °C for 18 h for bacteria and for 24 h for C. glabrata. The MIC values were taken as the lowest concentrations at which visible growth of microorganisms was inhibited. The minimum inhibitory concentrations (MICs) for MRSA ATCC 33591 were tested at the University of Liverpool. Bacterial cultures were grown overnight in Mueller–Hinton Agar (MHA) plates and adjusted to a final concentration of 10^5–10^6 CFU/mL. […] All the experiments were performed in two independent duplicates, and the MIC was determined as the lowest concentration in which no visible growth was observed.
# MRSA = settings: compared with the 4 μg/mL of the analogues; strain not given, context MRSA; cited from earlier work
# Description: To determine the antimicrobial activity of these analogues, the MIC test using the microdilution method was chosen. Analogues were tested on three different types of bacteria: Gram-positive S. aureus and S. epidermidis, Gram-negative E. coli and fungus C. glabrata (Table 1) including the MRSA ATCC 33591.
Molecule,MIC S. aureus ATCC 25923 (S. aureus ATCC 25923),MIC S. epidermidis ATCC 14990 [1],MIC C. glabrata ATCC 15126 (C. glabrata ATCC 15126),MIC E. coli ATCC 25922 (E. coli ATCC 25922),MIC MRSA ATCC 33591 (MRSA ATCC 33591),"MIC (C. glabrata ATCC 15126; Nakaseomyces glabratus, ATCC15126, CLSI broth microdilution, 96-well plates, RPMI-1640, inoculum 2 × 10^3 CFU/mL, 37 °C for 24 h, tested 1–512 μg/mL, visible growth)",potency (MIC) of natural teixobactin (MRSA),"MIC (E. coli ATCC 25922; Escherichia coli, ATCC25922, 18 h, read-out: MIC E. coli ATCC 25922)"
CCCC[C@@H]1NC(=O)[C@H](CCCNC(=N)N)NC(=O)[C@H](C)NC(=O)[C@H](NC(=O)[C@H](CO)NC(=O)[C@@H](NC(=O)[C@H](NC(=O)[C@@H](CCCNC(=N)N)NC(=O)[C@H](CO)NC(=O)[C@@H](NC(=O)[C@H](N)Cc2ccccc2)[C@@H](C)CC)[C@@H](C)CC)[C@@H](C)CC)CNC1=O [TXGS-8] (H-[dF]IS[dR][d(aIle)]IS[dDap]AR[Nle]; lactam 8-C),8 µg/mL,8 µg/mL,128 µg/mL,64 µg/mL,–,–,–,–
CCCC[C@@H]1NC(=O)[C@H](CCCNC(=N)N)NC(=O)[C@H](C)NC(=O)[C@H](NC(=O)[C@H](CO)NC(=O)[C@@H](NC(=O)[C@H](NC(=O)[C@@H](CCCNC(=N)N)NC(=O)[C@H](CO)NC(=O)[C@@H](NC(=O)[C@@H](Cc2ccccc2)NC)[C@@H](C)CC)[C@@H](C)CC)[C@@H](C)CC)CNC1=O [TXGS-7] (H-[dNMeF]IS[dR][d(aIle)]IS[dDap]AR[Nle]; lactam 8-C),4 µg/mL,8 µg/mL,64 µg/mL,32 µg/mL,4 µg/mL,–,–,–
"CC(=O)N1CCN(c2ccc(OCC3COC(Cn4ccnc4)(c4ccc(Cl)cc4Cl)O3)cc2)CC1 (stereo not drawn) [Ketoconazole, ketoconazole, reference compound]",–,–,–,–,–,0.62 µg/mL,–,–
teixobactin,–,–,–,–,–,–,0.25 µg/mL,–
"CN[C@H](CC(C)C)C(=O)N[C@H]1C(=O)N[C@@H](CC(N)=O)C(=O)N[C@H]2C(=O)N[C@H]3C(=O)N[C@H](C(=O)N[C@H](C(=O)O)c4cc(O)cc(O)c4-c4cc3ccc4O)[C@H](O)c3ccc(c(Cl)c3)Oc3cc2cc(c3O[C@@H]2O[C@H](CO)[C@@H](O)[C@H](O)[C@H]2O[C@H]2C[C@](C)(N)[C@H](O)[C@H](C)O2)Oc2ccc(cc2Cl)[C@H]1O [Vancomicin, vancomycin, reference compound]",–,–,–,–,–,–,–,> 64 µg/mL
"CC[C@H](C)[C@@H]1NC(=O)[C@H](CCCNC(=N)N)NC(=O)[C@H](C)NC(=O)[C@H](NC(=O)[C@H](CO)NC(=O)[C@@H](NC(=O)[C@H](NC(=O)[C@@H](CCC(N)=O)NC(=O)[C@H](CO)NC(=O)[C@@H](NC(=O)[C@@H](Cc2ccccc2)NC)[C@@H](C)CC)[C@@H](C)CC)[C@@H](C)CC)CNC1=O [TXGS-1, D-Dap8,Arg10-teixobactin, reference compound]",32 µg/mL,256 µg/mL,>512 µg/mL,>512 µg/mL,–,–,–,–
CCCC[C@@H]1NC(=O)[C@H](CCCNC(=N)N)NC(=O)[C@H](C)NC(=O)[C@H](NC(=O)[C@H](CO)NC(=O)[C@@H](NC(=O)[C@H](NC(=O)[C@@H](CCC(N)=O)NC(=O)[C@H](CO)NC(=O)[C@@H](NC(=O)[C@@H](Cc2ccccc2)NC)[C@@H](C)CC)[C@@H](C)CC)[C@@H](C)CC)CNC1=O [TXGS-3],4 µg/mL,64 µg/mL,>512 µg/mL,>512 µg/mL,4 µg/mL,–,–,–
CC[C@H](C)[C@@H]1NC(=O)[C@H](CCCNC(=N)N)NC(=O)[C@H](C)NC(=O)[C@H](NC(=O)[C@H](CO)NC(=O)[C@@H](NC(=O)[C@H](NC(=O)[C@@H](CCCNC(=N)N)NC(=O)[C@H](CO)NC(=O)[C@@H](NC(=O)[C@@H](Cc2ccccc2)NC)[C@@H](C)CC)[C@@H](C)CC)[C@@H](C)CC)CNC1=O [TXGS-5] (H-[dNMeF]IS[dR][d(aIle)]IS[dDap]ARI; lactam 8-C),256 µg/mL,256 µg/mL,512 µg/mL,256 µg/mL,–,–,–,–
CC[C@H](C)[C@H](NC(=O)[C@H](N)Cc1ccccc1)C(=O)N[C@@H](CO)C(=O)N[C@H](CCCNC(=N)N)C(=O)N[C@@H](C(=O)N[C@H](C(=O)N[C@@H](CO)C(=O)N[C@@H]1CNC(=O)[C@H]([C@@H](C)CC)NC(=O)[C@H](CCCNC(=N)N)NC(=O)[C@H](C)NC1=O)[C@@H](C)CC)[C@@H](C)CC [TXGS-6],64 µg/mL,64 µg/mL,>512 µg/mL,>512 µg/mL,–,–,–,–
CC[C@H](C)[C@H](NC(=O)[C@H](N)Cc1ccccc1)C(=O)N[C@@H](CO)C(=O)N[C@H](CCC(N)=O)C(=O)N[C@@H](C(=O)N[C@H](C(=O)N[C@@H](CO)C(=O)N[C@@H]1CNC(=O)[C@H]([C@@H](C)CC)NC(=O)[C@H](CCCNC(=N)N)NC(=O)[C@H](C)NC1=O)[C@@H](C)CC)[C@@H](C)CC [TXGS-2],32 µg/mL,128 µg/mL,>512 µg/mL,>512 µg/mL,–,–,–,–
